The results in this text go back to ChEMBL document CHEMBL4043168, “The design and SAR of a novel series of 2-aminopyridine based LRRK2 inhibitors” (Bioorg Med Chem Lett, 2017).

Structures are written as SMILES.

Data set [1] concerns MDR1. Nature of the data set: Efflux ratio of apparent permeability from basolateral to apical over apical to basolateral side in MDCK cells harboring MDR1. Type of data set: ADME, cell-based, Canis lupus familiaris. The note with it: dog.
A short description of data set [2]: Ratio of unbound drug level in mouse brain to plasma at 10 mg/kg, po. Type of data set: ADME, organism-based. The note with it: read-out: K(p,uu,brain).
For data set [3], the target named is Tyrosine-protein kinase Fgr (Homo sapiens) (UniProt P09769). Nature of the data set: Inhibition of FGR conserved Lys1 (LIKDDEYNPCQGSKFPIK) in human PBMC at 1 uM.
The target of data set [4] is Phosphatidylinositol 4,5-bisphosphate 3-kinase catalytic subunit beta isoform (Homo sapiens) (UniProt P42338). Put plainly: Inhibition of PIK3CB ATP binding site (VFGEDSVGVIFKNGDDLRQDMLTLQMLR) in human PBMC at 1 uM.
Data set [5] addresses T1, Interleukin-1 receptor-associated kinase 4 (Homo sapiens) (UniProt Q9NWZ3).
T1 sequence (whole entry): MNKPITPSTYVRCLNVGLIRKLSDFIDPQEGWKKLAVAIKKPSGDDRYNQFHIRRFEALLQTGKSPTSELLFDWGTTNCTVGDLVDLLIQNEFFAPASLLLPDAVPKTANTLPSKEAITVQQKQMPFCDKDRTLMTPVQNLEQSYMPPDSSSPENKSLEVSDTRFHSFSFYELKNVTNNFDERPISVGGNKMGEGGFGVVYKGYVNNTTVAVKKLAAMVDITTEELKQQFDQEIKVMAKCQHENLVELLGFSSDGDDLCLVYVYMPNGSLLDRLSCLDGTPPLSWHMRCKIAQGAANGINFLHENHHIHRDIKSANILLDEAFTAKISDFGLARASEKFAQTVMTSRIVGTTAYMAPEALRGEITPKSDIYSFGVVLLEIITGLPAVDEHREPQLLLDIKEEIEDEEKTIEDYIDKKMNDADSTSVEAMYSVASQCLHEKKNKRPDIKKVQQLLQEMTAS
Nature of the data set: Inhibition of IRAK4 conserved Lys2 (DIKSANILLDEAFTAK) in human PBMC at 0.1 uM.

The target in data set [6] is Myosin light chain kinase, smooth muscle (Homo sapiens) (UniProt Q15746). Nature of the data set: Inhibition of smMLCK conserved Lys1 (VWAGKFFK) in human PBMC at 1 uM.
Data set [7] concerns the target T2, Phosphatidylinositol 4,5-bisphosphate 3-kinase catalytic subunit delta isoform (Homo sapiens) (UniProt O00329).
T2 sequence (whole entry): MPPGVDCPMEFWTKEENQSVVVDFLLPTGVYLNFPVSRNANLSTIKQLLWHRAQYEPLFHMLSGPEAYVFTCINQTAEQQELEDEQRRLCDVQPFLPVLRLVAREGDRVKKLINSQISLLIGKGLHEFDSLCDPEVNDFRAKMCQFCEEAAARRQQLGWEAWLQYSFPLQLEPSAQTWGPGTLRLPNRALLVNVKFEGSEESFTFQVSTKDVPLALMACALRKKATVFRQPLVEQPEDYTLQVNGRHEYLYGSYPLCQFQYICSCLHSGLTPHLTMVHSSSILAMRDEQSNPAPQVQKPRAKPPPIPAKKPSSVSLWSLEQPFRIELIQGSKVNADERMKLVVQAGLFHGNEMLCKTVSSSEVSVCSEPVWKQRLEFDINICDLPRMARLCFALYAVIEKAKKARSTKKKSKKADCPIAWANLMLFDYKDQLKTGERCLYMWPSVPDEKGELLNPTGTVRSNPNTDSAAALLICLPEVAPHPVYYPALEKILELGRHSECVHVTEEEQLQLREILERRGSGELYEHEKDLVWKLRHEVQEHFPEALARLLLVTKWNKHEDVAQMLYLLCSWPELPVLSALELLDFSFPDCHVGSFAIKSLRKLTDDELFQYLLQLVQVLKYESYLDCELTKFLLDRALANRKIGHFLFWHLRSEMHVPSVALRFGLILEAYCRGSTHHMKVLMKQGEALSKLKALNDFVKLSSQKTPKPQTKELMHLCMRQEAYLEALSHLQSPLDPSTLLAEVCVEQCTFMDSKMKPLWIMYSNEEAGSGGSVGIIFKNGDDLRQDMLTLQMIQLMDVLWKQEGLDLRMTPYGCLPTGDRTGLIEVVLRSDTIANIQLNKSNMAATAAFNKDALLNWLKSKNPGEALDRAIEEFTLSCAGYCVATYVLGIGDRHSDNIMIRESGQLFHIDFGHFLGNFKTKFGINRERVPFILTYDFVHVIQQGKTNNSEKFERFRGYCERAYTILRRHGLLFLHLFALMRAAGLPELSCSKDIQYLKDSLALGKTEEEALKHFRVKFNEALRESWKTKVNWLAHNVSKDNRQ
Nature of the data set: Inhibition of PIK3CD ATP binding site (TKVNWLAHNVSKDNRQ) in human PBMC at 1 uM.

Data set [8] deals with eIF-2-alpha kinase GCN2 (Homo sapiens) (UniProt Q9P2K8). Nature of the data set: Inhibition of GCN2 conserved Lys2 (DLKPVNIFLDSDDHVK) in human PBMC at 1 uM.
The nature of data set [9]: Ratio of drug level in mouse brain to plasma at 10 mg/kg, po. Type of data set: ADME, organism-based. The note with it: read-out: BPR.
The target in data set [10] is T3, Inhibitor of nuclear factor kappa-B kinase subunit epsilon (Homo sapiens) (UniProt Q14164).
T3 sequence (whole entry): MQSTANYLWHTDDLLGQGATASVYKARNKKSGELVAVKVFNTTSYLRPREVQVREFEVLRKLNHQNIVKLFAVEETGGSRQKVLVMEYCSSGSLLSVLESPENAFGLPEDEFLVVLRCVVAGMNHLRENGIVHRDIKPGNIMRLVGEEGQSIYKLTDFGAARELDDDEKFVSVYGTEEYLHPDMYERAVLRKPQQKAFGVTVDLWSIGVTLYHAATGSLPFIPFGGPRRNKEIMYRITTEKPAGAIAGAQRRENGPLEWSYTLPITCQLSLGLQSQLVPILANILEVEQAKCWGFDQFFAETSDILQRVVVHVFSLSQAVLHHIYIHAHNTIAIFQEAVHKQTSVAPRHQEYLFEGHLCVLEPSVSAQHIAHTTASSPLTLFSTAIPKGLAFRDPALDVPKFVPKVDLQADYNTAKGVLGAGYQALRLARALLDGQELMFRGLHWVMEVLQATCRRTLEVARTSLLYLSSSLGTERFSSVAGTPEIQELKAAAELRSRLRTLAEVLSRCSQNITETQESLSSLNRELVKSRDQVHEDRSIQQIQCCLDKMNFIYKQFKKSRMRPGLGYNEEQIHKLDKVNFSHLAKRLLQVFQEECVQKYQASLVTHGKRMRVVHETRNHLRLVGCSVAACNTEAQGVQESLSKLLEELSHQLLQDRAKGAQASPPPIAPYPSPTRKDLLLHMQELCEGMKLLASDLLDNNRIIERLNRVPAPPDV
Nature of the data set: Inhibition of IKKe conserved Lys1 (SGELVAVKVFNTTSYLRPR) in human PBMC at 1 uM.

The target in data set [11] is Serine/threonine-protein kinase 26 (Homo sapiens) (UniProt Q9P289). Nature of the data set: Inhibition of MST4 conserved Lys2 (DIKAANVLLSEQGDVK) in human PBMC at 0.1 uM.
Sequence of Serine/threonine-protein kinase 26 (Homo sapiens) (Q9P289 2-416 limits assumed): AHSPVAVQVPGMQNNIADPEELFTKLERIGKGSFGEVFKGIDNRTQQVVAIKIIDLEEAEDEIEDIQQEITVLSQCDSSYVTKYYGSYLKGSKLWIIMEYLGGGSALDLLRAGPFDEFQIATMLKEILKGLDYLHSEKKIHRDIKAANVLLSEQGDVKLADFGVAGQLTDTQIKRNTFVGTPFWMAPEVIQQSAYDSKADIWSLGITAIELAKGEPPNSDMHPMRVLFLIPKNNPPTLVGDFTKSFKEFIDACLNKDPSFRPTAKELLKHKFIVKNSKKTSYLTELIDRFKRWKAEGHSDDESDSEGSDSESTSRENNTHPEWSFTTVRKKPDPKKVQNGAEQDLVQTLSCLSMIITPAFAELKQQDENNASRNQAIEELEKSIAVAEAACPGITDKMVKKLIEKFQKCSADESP

Sequence of Tyrosine-protein kinase Fgr (Homo sapiens) (P09769 2-529 limits assumed): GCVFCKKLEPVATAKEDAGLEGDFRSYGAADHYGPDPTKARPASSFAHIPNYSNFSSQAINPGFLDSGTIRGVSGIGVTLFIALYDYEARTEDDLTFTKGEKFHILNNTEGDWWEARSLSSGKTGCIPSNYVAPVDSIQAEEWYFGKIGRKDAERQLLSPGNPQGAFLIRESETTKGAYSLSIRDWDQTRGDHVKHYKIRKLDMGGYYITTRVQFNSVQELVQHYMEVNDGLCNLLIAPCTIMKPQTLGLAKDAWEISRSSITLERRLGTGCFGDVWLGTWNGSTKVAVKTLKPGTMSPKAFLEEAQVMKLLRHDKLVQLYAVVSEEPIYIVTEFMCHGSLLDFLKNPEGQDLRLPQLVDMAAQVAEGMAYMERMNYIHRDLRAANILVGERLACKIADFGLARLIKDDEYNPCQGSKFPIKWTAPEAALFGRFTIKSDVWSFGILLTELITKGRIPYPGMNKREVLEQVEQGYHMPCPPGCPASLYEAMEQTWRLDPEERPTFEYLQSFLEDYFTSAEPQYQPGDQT
Sequence of Myosin light chain kinase, smooth muscle (Homo sapiens) (Q15746 whole entry, canonical isoform): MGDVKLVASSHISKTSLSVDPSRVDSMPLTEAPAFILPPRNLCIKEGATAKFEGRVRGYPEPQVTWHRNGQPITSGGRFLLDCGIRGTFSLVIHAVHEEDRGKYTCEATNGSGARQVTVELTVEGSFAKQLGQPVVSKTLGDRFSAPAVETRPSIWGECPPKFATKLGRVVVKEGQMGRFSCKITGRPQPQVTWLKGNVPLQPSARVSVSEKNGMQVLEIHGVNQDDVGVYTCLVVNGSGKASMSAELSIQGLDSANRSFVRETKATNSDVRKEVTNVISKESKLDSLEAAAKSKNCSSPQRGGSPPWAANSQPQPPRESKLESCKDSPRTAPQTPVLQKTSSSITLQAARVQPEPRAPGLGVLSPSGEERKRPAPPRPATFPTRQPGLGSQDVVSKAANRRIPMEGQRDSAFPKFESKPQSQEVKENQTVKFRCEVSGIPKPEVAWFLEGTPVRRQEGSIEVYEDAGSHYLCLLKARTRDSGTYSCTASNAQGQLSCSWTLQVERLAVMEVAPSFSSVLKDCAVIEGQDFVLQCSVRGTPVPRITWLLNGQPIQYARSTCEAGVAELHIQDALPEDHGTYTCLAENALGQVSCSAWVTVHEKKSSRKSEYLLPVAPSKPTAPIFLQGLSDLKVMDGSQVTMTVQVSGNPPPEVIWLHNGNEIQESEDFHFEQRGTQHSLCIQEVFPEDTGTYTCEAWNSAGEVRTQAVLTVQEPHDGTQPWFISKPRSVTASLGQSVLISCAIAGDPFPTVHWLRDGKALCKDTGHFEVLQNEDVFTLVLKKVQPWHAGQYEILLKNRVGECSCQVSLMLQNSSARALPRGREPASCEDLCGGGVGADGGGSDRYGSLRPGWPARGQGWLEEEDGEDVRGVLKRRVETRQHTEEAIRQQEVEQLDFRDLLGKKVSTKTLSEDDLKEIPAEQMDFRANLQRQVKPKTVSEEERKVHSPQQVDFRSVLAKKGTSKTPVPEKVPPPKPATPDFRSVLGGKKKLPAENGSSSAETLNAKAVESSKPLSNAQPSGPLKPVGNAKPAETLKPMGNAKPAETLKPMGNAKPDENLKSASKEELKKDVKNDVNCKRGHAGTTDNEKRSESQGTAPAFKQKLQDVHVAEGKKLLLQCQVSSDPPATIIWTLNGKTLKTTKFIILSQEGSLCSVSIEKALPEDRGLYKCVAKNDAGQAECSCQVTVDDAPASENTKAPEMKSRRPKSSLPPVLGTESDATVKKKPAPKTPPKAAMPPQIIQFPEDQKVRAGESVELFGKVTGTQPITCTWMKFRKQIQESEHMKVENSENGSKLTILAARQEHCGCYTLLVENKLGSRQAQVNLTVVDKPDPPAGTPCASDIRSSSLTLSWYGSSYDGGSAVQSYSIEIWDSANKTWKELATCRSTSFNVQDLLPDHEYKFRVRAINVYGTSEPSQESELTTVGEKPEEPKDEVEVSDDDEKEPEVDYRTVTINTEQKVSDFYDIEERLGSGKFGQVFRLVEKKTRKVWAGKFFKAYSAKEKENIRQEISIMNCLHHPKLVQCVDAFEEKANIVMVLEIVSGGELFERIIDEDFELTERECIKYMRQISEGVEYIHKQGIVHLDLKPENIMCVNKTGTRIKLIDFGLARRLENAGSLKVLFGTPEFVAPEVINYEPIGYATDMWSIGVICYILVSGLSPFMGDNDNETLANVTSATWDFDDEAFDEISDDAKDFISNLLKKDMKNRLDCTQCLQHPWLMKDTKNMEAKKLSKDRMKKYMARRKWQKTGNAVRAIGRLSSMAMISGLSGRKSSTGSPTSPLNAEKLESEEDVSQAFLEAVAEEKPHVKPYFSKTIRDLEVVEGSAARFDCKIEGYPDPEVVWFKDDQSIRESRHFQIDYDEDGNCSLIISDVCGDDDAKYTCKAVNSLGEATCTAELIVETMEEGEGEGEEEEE
Sequence of Phosphatidylinositol 4,5-bisphosphate 3-kinase catalytic subunit beta isoform (Homo sapiens) (P42338 whole entry, looked up, canonical isoform): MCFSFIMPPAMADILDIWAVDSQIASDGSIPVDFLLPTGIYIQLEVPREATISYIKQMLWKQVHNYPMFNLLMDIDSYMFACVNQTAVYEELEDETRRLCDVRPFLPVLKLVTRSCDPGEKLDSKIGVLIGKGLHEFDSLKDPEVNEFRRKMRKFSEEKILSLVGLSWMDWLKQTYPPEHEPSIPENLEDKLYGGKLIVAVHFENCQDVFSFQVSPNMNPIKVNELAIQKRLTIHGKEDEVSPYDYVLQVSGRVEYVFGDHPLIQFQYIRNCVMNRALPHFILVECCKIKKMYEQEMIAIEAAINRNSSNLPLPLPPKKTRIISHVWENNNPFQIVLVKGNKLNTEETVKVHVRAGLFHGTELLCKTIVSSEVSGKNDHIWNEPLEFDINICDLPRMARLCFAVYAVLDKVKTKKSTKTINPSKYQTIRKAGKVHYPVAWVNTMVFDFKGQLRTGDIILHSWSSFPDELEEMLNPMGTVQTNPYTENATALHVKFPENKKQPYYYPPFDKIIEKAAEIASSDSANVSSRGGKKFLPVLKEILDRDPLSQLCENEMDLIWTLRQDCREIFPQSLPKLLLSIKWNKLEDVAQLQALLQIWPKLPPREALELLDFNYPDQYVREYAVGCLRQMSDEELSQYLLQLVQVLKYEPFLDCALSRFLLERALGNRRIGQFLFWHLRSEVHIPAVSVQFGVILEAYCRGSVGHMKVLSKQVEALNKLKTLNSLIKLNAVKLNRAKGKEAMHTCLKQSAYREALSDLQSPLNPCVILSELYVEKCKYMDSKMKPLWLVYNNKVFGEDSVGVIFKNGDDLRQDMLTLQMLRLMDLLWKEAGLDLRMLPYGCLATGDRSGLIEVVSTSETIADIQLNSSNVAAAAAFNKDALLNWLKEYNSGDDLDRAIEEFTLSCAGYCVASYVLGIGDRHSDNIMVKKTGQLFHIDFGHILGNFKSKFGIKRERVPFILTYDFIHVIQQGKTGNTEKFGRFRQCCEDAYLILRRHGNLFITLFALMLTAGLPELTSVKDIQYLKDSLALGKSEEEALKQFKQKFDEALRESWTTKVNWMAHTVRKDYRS

For the compound `CC(C)n1cc(-c2cc(-c3ccc(CN4CCOCC4)cc3)cnc2N)nn1`, the efflux ratio in [1] came out at 0.68. In addition, the Kp uu in [2] was 0.76. In addition, the inhibition was -8.4% in data set [3]; 21.2% in data set [4]; -1.8% in [5]; 26% in data set [6]; 4% in data set [7]; -2% in [8]. For the same compound, the inhibition in data set [10] worked out at 5.5%; in [11] it was 0.5%. In addition, the Kp in [9] came out at 1.3.
